Patent US10548898B2, “Quinazoline compounds” (Gilead Sciences, Inc., priority 2014, dated 2020)
Where two headings read alike, the source gives them in different places.

Key:
Format in all cases: cell-based
HIV-1 HBX2 (wild type) = experiment: High throughput cytopathic effect assay in MT-4 cells, wild type HIV-1
Description: (§1) Compounds were screened in a miniaturized, high throughput cytopathic effect assay for activity against HIV-1 HBX2 (wild type) and HIV-1 reverse transcriptase mutants K103N and Y181C. In Tables 1 and 2 below. “w.t.” refers to results of the tested compounds run with the wildtype 1 and “w.t, assay 2” refers results of the tested compounds run with the wildtype on the same day as the testing of the compounds with the mutants. Thus, “w.t, assay 2” was run under the same conditions as the testing of the compounds with the mutants and provides a direct comparison with the results from the testing with the mutants.
(§2) Ten-point serial dilutions of compounds with half-log step size were generated in DMSO. AZT ([…]) was used as the positive control and DMSO as the negative control. The Echo acoustic dispenser was used to deliver 200 nL of serially diluted compound into sterile 384 well tissue culture assay plates. Two million MT-4 cells were incubated with each of the 3 viruses at MOI of 0.0005 in separate 1 mL infection tubes for 1 hour at 37° C. The cells were diluted in cell culture medium (RPMI+10% FBS) to 50.000 cells/mL. The infected cells were added to 384 well assay plates containing serially dilute compounds. Assay plates were incubated for 5 days in a humidified incubator set at 37° C. and 5% CO2. To measure the cytopathic effect of HIV, 40 μL Cell TiterGlo was added to each well and the resulting luminescence signal is read with the Envision plate reader (Perkin Elmer). Data were normalized to positive and negative controls in each plate and expressed as % CPE Protection. EC50 values were defined as the compound concentration that caused a 50% decrease in luminescence signal, and were calculated by non-linear regression using Pipeline Pilot software by applying a four parameter fit equation (Accelrys, San Diego, Calif.).

[1] = system: HIV-1 reverse transcriptase mutant K103N; experiment: High throughput cytopathic effect assay in MT-4 cells, K103N mutant; conditions: for EC50: Human immunodeficiency virus 1, MT4, 120 h, read-out: MT4 EC50 (nM) against K103N; for FC against mutant K103N: fold change of MT4 EC50 versus w.t. assay 2
Description: as §1, §2

[2] = system: HIV-1 reverse transcriptase mutant Y181C; experiment: High throughput cytopathic effect assay in MT-4 cells, Y181C mutant; conditions: for EC50: Human immunodeficiency virus 1, MT4, 120 h, read-out: MT4 EC50 (nM) against Y181C; for FC against mutant Y181C: fold change of MT4 EC50 versus w.t. assay 2
Description: as §1, §2

[3] = system: HIV-1 recombinant strain encoding reverse transcriptase mutation K103N; experiment: Resistance profile against HIV-1 RT mutants in MT-2 cells, K103N; conditions: ratio of mean EC50 mutant/WT virus
Description: (§3) Compounds were tested for antiviral activity against a panel of NNRTI resistant viruses. A panel of 8 clonal site-directed mutant viruses representing the major resistance development pathways against rilpivirine (“RPV”), efavirenz (“EFV”), and nevirapine (“NVP”), containing both single and double mutations within HIV-1 reverse transcriptase was employed. Further details and background can be found in Janssen et al. J. Med. Chem, 2005, 48, 1901-1909; Das et al., Proc. Nat. Acad. Sci., 2008, vol., 105, no. 5, 1466-1471; and Kuroda et al., Nature Chemistry, 2013, DOI: 10.1038/NCHEM. 1559. […] HIV-1 recombinant strains encoding reverse transcriptase mutations K103N, Y181C, Y188L, G190A, K103N/Y181C, L1001/Y181C, E138K or E138KIM 184V were constructed by site-directed mutagenesis. Wild-type and mutant viruses were prepared by transfecting infectious proviral HXB2-based cDNA clones into MT-2 cells and harvesting the cell supernatants. MT-2 cells were infected with wild-type and mutant HIV-1 strains at a multiplicity of infection (MOI) of 0.005 by gentle mixing for 3 hours at 37° C. and then added at a density of 16,667 cells per well in 50 μL complete RPMI cell culture media (containing 10% fetal bovine serum (FBS) and 10% penicillin-streptomycin) to 96-well plates containing 50 μL of a 3-fold serial dilution of test compounds in RPMI medium. After 5 days of incubation at 37° C. in a humidified incubator in the presence of 5% CO2. 100 μL of Cell Titer-Glo™ Reagent (Promega Biosciences, Inc., Madison, Wis.) was added to each well and the relative light units (RLU) measured on an Envision plate reader. […] The EC50 value was defined as the compound concentration inducing a 50% decrease in virus replication. Data analysis for the antiviral activity observed in MT-2 cells was performed using XL-Fit™ software (IDBS, Guildford, Surrey, UK) to calculate EC50 from an 8-point dose-response curve using the following equation:
(§4) [formula] where y=virus inhibition, x=drug concentration, M=maximum inhibition, H=minimum inhibition and n=Hill coefficient, EC50 values (mean±standard deviation) were calculated from at least three independent experiments performed in triplicate. The level of resistance was calculated as a ratio of the mean EC50 for each mutant/WT virus. Results are disclosed in FIG. 1 and in Tables 3 and 4 below.

[4] = system: HIV-1 recombinant strain encoding reverse transcriptase mutation Y181C; experiment: Resistance profile against HIV-1 RT mutants in MT-2 cells, Y181C; conditions: ratio of mean EC50 mutant/WT virus
Description: as §3, §4

[5] = system: HIV-1 recombinant strain encoding reverse transcriptase mutation L100I/Y181C; experiment: Resistance profile against HIV-1 RT mutants in MT-2 cells, L100I/Y181C; conditions: ratio of mean EC50 mutant/WT virus
Description: as §3, §4

[6] = system: HIV-1 recombinant strain encoding reverse transcriptase mutation K103N/Y181C; experiment: Resistance profile against HIV-1 RT mutants in MT-2 cells, K103N/Y181C; conditions: ratio of mean EC50 mutant/WT virus
Description: as §3, §4

[7] = system: HIV-1 recombinant strain encoding reverse transcriptase mutation Y188L; experiment: Resistance profile against HIV-1 RT mutants in MT-2 cells, Y188L; conditions: ratio of mean EC50 mutant/WT virus
Description: as §3, §4

hERG channels = molecular target: T1, hERG channels (Homo sapiens, UniProt Q12809); experiment: hERG assay, whole cell recordings in CHO cell line stably expressing hERG channels; conditions: CHO cells, whole cell patch clamp; greater than values indicate the maximum achievable concentration in the assay
T1 construct: host or cells: CHO cell line stably expressing hERG
T1 sequence (Q12809 whole entry): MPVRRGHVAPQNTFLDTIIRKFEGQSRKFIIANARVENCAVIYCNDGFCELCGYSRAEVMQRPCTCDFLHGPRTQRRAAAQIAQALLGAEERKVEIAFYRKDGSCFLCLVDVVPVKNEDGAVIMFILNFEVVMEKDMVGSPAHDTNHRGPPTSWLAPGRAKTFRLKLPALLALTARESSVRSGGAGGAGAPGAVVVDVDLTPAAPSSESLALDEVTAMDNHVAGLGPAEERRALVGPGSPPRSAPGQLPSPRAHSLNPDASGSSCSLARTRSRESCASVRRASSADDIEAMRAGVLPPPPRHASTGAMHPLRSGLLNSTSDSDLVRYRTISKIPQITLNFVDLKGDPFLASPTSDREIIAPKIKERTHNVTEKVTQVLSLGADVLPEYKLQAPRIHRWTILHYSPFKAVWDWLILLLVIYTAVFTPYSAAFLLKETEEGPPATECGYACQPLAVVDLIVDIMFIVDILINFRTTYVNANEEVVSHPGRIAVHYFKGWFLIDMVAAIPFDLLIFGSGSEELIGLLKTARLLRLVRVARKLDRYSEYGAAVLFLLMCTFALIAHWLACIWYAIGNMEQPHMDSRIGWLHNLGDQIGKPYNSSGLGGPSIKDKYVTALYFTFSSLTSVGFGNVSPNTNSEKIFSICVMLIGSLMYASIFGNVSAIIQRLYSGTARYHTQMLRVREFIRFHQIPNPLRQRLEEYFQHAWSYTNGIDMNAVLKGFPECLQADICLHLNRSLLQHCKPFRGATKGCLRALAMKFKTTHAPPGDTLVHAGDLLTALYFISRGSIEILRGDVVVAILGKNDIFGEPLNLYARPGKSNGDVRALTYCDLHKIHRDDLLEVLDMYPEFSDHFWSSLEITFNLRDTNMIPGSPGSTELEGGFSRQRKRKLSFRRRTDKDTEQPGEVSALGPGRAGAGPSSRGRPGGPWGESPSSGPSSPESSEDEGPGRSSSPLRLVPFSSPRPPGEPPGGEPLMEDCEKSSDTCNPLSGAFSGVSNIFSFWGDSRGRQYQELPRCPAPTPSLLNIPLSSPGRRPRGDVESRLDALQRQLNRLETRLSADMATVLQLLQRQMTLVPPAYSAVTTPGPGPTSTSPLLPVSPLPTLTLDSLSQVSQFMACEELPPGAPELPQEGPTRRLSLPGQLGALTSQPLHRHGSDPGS
Description: AVIVA's CHO cell line, which stably expresses hERG channels, was used for the study. Cells were cultured in DMEM/F12 containing 10% FBS, 1% penicillin/streptomycin and 500 μg/ml G418. Before testing, cells were harvested using Accumax (Innovative Cell Technologies).
External Solution: 2 mM CaCl2; 2 mM MgCl2; 4 mM KCl; 150 mM NaCl; 10 mM Glucose; 10 mM HEPES; 305-315 mOsm; pH 7.4 (adjusted with 5M NaOH.)
Internal Solution: 140 mM KCl; 10 mM MgCl2; 6 mM EGTA; 5 mM HEPES-Na; 5 mM ATP-Mg; 295-305 mOsm; pH 7.25 (adjusted with 1M KOH).
Whole cell recordings were performed using PX 7000A (Axon Instruments) with AVIVA's SealChip™ technology. Cells were voltage clamped at a holding potential of −80 mV. The hERG current was then activated by a depolarizing step to −50 mV for 300 ms. This first step at −50 mV was used as a baseline for measuring peak amplitude of the tail current. Next, a voltage step to +20 mV was applied for 5 s to activate the channels. Finally, a step back to −50 mV for 5 s removed activation and the deactivating tail current was recorded.
All test articles were prepared from 10 mM DMSO stock solutions. Solutions were mixed by sonication for 20 min, followed by vigorous vortexing. Prior to testing, compounds were diluted to test concentrations in glass vials using External Solution. Dilutions were prepared no longer than 20 min prior to use.
After achieving whole cell configuration, cells were monitored for 90 s to assess stability and then washed with External Solution for 66 s. The voltage protocol was then applied to the cells every 12 s throughout the procedure. Only stable cells with recording parameters above threshold were allowed to enter the drug addition procedure.
External solution containing 0.1% DMSO (vehicle) was applied to the cells to establish a baseline. After allowing the current to stabilize for 3 to 10 min, test articles were applied. Test article solutions were added to cells in 4 separate additions. Cells were kept in test solution until effect of the test article reached steady state, to a maximum of 12 min. Next, 1 μM cisapride (positive control) was added. Finally, washout with External Solution was performed until the recovery current reached steady state.
Data analysis was performed using DataXpress (Axon Instruments), Clampfit (Axon Instruments) and Origin (OriginLab Corporation) software. The greater than values in Table 5 indicate the maximum achievable concentration in the assay (e.g., compounds achieving their solubility limit).

[8] = Human immunodeficiency virus 1, MT4, read-out: MT4 EC50 (nM) against w.t. assay 2
[9] = Human immunodeficiency virus 1, MT4, 120 h, MT-4 cells, 5 days, cytopathic effect, Cell TiterGlo, read-out: MT4 EC50 (nM) against w.t.

COc1cc(Nc2nc(N)c3cccc(-c4c(C)cc(/C=C/C#N)cc4C)c3n2)ccc1C#N [Compound 3, (E)-4-((4-Amino-8-(4-(2-cyanovinyl)-2,6-dimethylphenyl)quinazolin-2-yl)amino)-2-methoxybenzonitrile]
EC50 (HIV-1 HBX2 (wild type); [8]): 12.9 nM
EC50 [1]: 12 nM
FC against mutant K103N [1]: 0.9
EC50 [2]: 50.2 nM
FC against mutant Y181C [2]: 3.9
Biology resistance panel-low throughput fold change (FC) K103N [3]: 1.0
Biology resistance panel-low throughput fold change (FC) Y181C [4]: 3.4
Biology resistance panel-low throughput fold change (FC) L100I/Y181C [5]: 1.0
Biology resistance panel-low throughput fold change (FC) K103N/Y181C [6]: 3.4
Biology resistance panel-low throughput fold change (FC) Y188L [7]: 13.7

Cc1cc(/C=C/C#N)cc(C)c1-c1cc(F)cc2cnc(Nc3ccc(C#N)cc3)nc12 [Compound 4, (E)-4-((8-(4-(2-Cyanovinyl)-2,6-dimethylphenyl)-6-fluoroquinazolin-2-yl)amino)benzonitrile]
EC50 (HIV-1 HBX2 (wild type); [9]): 9.2 nM
EC50 (HIV-1 HBX2 (wild type); [8]): 9.8 nM
EC50 [1]: 19.1 nM
FC against mutant K103N [1]: 2.0
EC50 [2]: 47 nM
FC against mutant Y181C [2]: 4.8
Biology resistance panel-low throughput fold change (FC) K103N [3]: 1.4
Biology resistance panel-low throughput fold change (FC) Y181C [4]: 4.9
Biology resistance panel-low throughput fold change (FC) L100I/Y181C [5]: 5.4
Biology resistance panel-low throughput fold change (FC) K103N/Y181C [6]: 12.8
Biology resistance panel-low throughput fold change (FC) Y188L [7]: 16.9

N#C/C=C/c1cc(F)c(-c2cccc3cnc(Nc4ccc(C#N)cc4)nc23)c(F)c1 [Compound 5, (E)-4-((8-(4-(2-Cyanovinyl)-2,6-difluorophenyl)quinazolin-2-yl)amino)benzonitrile]
EC50 (HIV-1 HBX2 (wild type); [9]): 1.3 nM
EC50 (HIV-1 HBX2 (wild type); [8]): 1.5 nM
EC50 [1]: 2.5 nM
FC against mutant K103N [1]: 1.7
EC50 [2]: 12 nM
FC against mutant Y181C [2]: 8.2
Biology resistance panel-low throughput fold change (FC) K103N [3]: 1.6
Biology resistance panel-low throughput fold change (FC) Y181C [4]: 15.4
Biology resistance panel-low throughput fold change (FC) L100I/Y181C [5]: 18.9
Biology resistance panel-low throughput fold change (FC) K103N/Y181C [6]: 208.0
Biology resistance panel-low throughput fold change (FC) Y188L [7]: 174.0

Cc1cc(/C=C/C#N)cc(C)c1-c1cccc2c(N)nc(Nc3ccc(C#N)nc3)nc12 [Compound 9, (E)-5-((4-Amino-8-(4-(2-cyanovinyl)-2,6-dimethylphenyl)quinazolin-2-yl)amino)picolinonitrile]
EC50 (HIV-1 HBX2 (wild type); [9]): 3.4 nM
EC50 (HIV-1 HBX2 (wild type); [8]): 3.2 nM
EC50 [1]: 3.5 nM
FC against mutant K103N [1]: 1.1
EC50 [2]: 10.8 nM
FC against mutant Y181C [2]: 3.4
Biology resistance panel-low throughput fold change (FC) K103N [3]: 1.0
Biology resistance panel-low throughput fold change (FC) Y181C [4]: 5.7
Biology resistance panel-low throughput fold change (FC) L100I/Y181C [5]: 4.0
Biology resistance panel-low throughput fold change (FC) K103N/Y181C [6]: 14.7
Biology resistance panel-low throughput fold change (FC) Y188L [7]: 11.4
hERG (hERG channels): >3 µM

Cc1cc(/C=C/C#N)cc(C)c1-c1cccc2c(N)nc(Nc3cnc(C#N)cn3)nc12 [Compound 12, (E)-5-((4-Amino-8-(4-(2-cyanovinyl)-2,6-dimethylphenyl)quinazolin-2-yl)amino)pyrazine-2-carbonitrile]
EC50 (HIV-1 HBX2 (wild type); Human immunodeficiency virus 1, MT4, 120 h, read-out: MT4 EC50 (nM) against w.t.): 1.8 nM
EC50 (HIV-1 HBX2 (wild type); [8]): 1.8 nM
EC50 [1]: 1.7 nM
FC against mutant K103N [1]: 0.9
EC50 [2]: 12.5 nM
FC against mutant Y181C [2]: 6.9
hERG (hERG channels): >3 µM

Cc1cc(/C=C/C#N)cc(C)c1-c1cccc2cnc(Nc3ccc(C#N)cn3)nc12 [Compound 13, (E)-6-((8-(4-(2-Cyanovinyl)-2,6-dimethylphenyl)quinazolin-2-yl)amino)nicotinonitrile]
EC50 (HIV-1 HBX2 (wild type); [9]): 3.2 nM
EC50 (HIV-1 HBX2 (wild type); [8]): 4.3 nM
EC50 [1]: 5.9 nM
FC against mutant K103N [1]: 1.4
EC50 [2]: 27.4 nM
FC against mutant Y181C [2]: 6.4
hERG (hERG channels): 1.3 µM
